Test results as given in US6034236A, “Method for producing of phthalocyanine compound” (Nippon Shokubai Co., Ltd., priority 1997, dated 2000).

How the values were obtained:
[1] = Visible absorption spectrum (largest absorption wavelength, ε); type: physicochemical
[2] = Solubility in 2-ethoxyethanol

Molecule | Visible absorption spectrum, Thin film [1] [nm] | Largest absorption wavelength in 2-ethoxyethanol [1] [nm] | ε at largest absorption wavelength in 2-ethoxyethanol [1] | also measured
Clc1c(Cl)c(Cl)c2c(c1Cl)-c1nc-2nc2[n-]c(nc3nc(nc4[n-]c(n1)c1c(Cl)c(Cl)c(Cl)c(Cl)c41)-c1c(Cl)c(Cl)c(Cl)c(Cl)c1-3)c1c(Cl)c(Cl)c(Cl)c(Cl)c21.[O]=[V+2] [Example 12, hexadecachlorovanadylphthalocyanine] |  |  |  | Largest absorption wavelength in 1-chloronaphthalene [1]: 712.4 nm; ε at largest absorption wavelength in 1-chloronaphthalene [1]: 1.65 × 10^5
tetrakis(2-(2-propoxy)carbonyl-6-phenylphenoxy)dodecafluorovanadyl phthalocyanine [Example 1] | 732.2 | 715.0 | 1.52 × 10^5 | 
tetrakis(2-(1,3-dibromo-2-propoxy)-carbonyl-6-phenylphenoxy)dodecafluorovanadyl phthalocyanine [Example 2] | 731.6 | 714.5 | 1.75 × 10^5 | 
octaphenoxyoctafluorovanadyl phthalo-cyanine [Example 11] |  |  |  | Largest absorption wavelength in acetone ([1]; in acetone): 720 nm
tetrakis(2-(2-ethoxyethoxy)carbonyl-6-methoxyphenoxy)dodecafluorovanadyl phthalocyanine [Example 6] | 733.0 | 715.2 | 1.37 × 10^5 | Solubility in 2-ethoxyethanol [2]: 13 wt. %
tetrakis(2-(2-methoxyethoxy)carbonyl-6-methylphenoxy)dodecafluorovanadyl phthalocyanine [Example 5] | 732.8 | 710.4 | 1.32 × 10^5 | 
Fc1c(F)c(F)c2c(c1F)-c1nc-2nc2[n-]c(nc3nc(nc4[n-]c(n1)c1c(F)c(F)c(F)c(F)c41)-c1c(F)c(F)c(F)c(F)c1-3)c1c(F)c(F)c(F)c(F)c21.[O]=[V+2] [Example 7, hexadecafluorovanadyl phthalocyanine] |  |  |  | Largest absorption wavelength in 1-chloronaphthalene [1]: 710.2 nm; ε at largest absorption wavelength in 1-chloronaphthalene [1]: 1.89 × 10^5; Largest absorption wavelength in 1-chloronaphthalene ([1]; listed as Example 8): 710.1 nm; ε at largest absorption wavelength in 1-chloronaphthalene ([1]; listed as Example 8): 1.77 × 10^5
[O]=[Ti+2].c1ccc2c(c1)-c1nc-2nc2[n-]c(nc3nc(nc4[n-]c(n1)c1ccccc41)-c1ccccc1-3)c1ccccc21 [Example 13, titanylphthalocyanine] |  |  |  | Largest absorption wavelength in 1-chloronaphthalene [1]: 710.5 nm; ε at largest absorption wavelength in 1-chloronaphthalene [1]: 1.33 × 10^5
octakisphenylthiooctafluorovanadyl phthalocyanine [Example 10] |  |  |  | Largest absorption wavelength in toluene ([1]; in toluene): 770 nm
tetrakis(2-(2-methoxyethoxy)carbonyl-6-phenylphenoxy)dodecafluorovanadyl phthalocyanine [Example 3] | 730.6 | 713.7 | 1.42 × 10^5 | 
tetrakis(2-(2-tetrahydrofurfuryloxy)-carbonyl-6-phenylphenoxy)dodecafluorovanadyl phthalocyanine [Example 4] | 732.3 | 714.7 | 1.22 × 10^5 | 

Further lines, with some results ahead:

Visible absorption spectrum, Thin film [1] [nm] | Largest absorption wavelength in 2-ethoxyethanol [1] [nm] | ε at largest absorption wavelength in 2-ethoxyethanol [1] | Molecule | also measured
732.0 | 712.5 | 1.10 × 10^5 | tetrakis(2-(2-methoxyethoxy)carbonyl-6-methylphenoxy)dodecachlorovanadyl phthalocyanine [Example 9] | 
 | 709.0 | 1.26 × 10^5 | tetrakis(2-(2-ethoxyethoxy) dodecafluorovanadyl phthalocyanine [Example 14] | 
